We go through one compound from PMC4640066 (Nature Communications, 2015).

As a reminder, the IC50 is the concentration at which inhibition is half-maximal. The low end stands for greater potency in that assay, the high end for weaker potency in that assay.

Experiment [1] deals with DMSO-stimulated, γ-tubulin-independent aster formation. The experiment can be described thus: DMSO-stimulated aster formation in M-phase Xenopus egg extracts. Type of experiment: biochemical. As to conditions: M-phase-arrested Xenopus egg extracts, 5% DMSO, 20 min at 20 °C. The procedure: Cytostatic factor (CSF)-arrested M phase Xenopus egg extracts (CSF extracts) were prepared. Briefly, unfertilized eggs were crushed by 10,700g centrifugation for 20 min. M phase extracts were mixed with 0.5 μM Cy3-labelled α/β-tubulin and various concentrations of compounds. After incubation for 30 min on ice, 15 μM RanQ69L, 200 sperm nuclei per μl or 5% DMSO were added and incubated for 30 min on ice. After incubation for 20 min at 20 °C (for the samples with sperm nuclei, the incubation time was 30 min), 1.5 μl sample was fixed with 1.5 μl fix solution (0.3 volume of 37% formaldehyde, 0.6 volume of 80% glycerol and 0.1 vol of 10 × MMR solution (50 mM HEPES, pH 7.8, 1 M NaCl, 20 mM KCl, 10 mM MgCl2, 20 mM CaCl2 and 1 mM EDTA)), followed by the squash fix.
Images were acquired using a microscope (Axiovert 200 M; Carl Zeiss Inc.) equipped with a plan-Apochromat × 63 NA 1.3 oil objective lens (Carl Zeiss Inc.), a Cy3 emission filter and a Cascade:1 K (Photometrics Inc.) camera, and the AxioVision software (Carl Zeiss Inc.). The aster size and fluorescence intensity were quantified using a macro written in MATLAB[41].

The subject of experiment [2] is HeLa cells expressing EB3-EGFP (interphase). The experiment can be described thus: EB3-EGFP signal tracking, interphase cells. As to conditions: 15 min; for Track length / Track lifetime / Velocity: interphase HeLa EB3-EGFP, mean±s.d.; for Track numbers: interphase, from a 144-μm^2 area inside the cell. Type of experiment: cell-based, human. As for the experimental part:
A HeLa ‘Kyoto' cell line stably expressing EB3-EGFP (a kind gift from Dr J. Ellenberg) was maintained in DMEM+GlutaMAX (Gibco) supplemented with 10% FBS, 2 mM L-glutamine, 100 U ml^−1 penicillin, 100 μg ml^−1 streptomycin, 1 mM sodium pyruvate and 0.5 mg ml^−1 G418. Cells were seeded into eight-well Lab-Tek chambers (Nunc, Rochester, NY) for 24-h prior imaging. For imaging, the medium was exchanged to Live Cell Imaging Solution (Molecular Probes Life Technologies) supplemented as described above and containing various concentrations of AG1 or gatastatin. Interphase cells were incubated with drugs for 15 min and mitotic cells were treated as described in Fig. 4c. Then, EB3 tracks were observed under a PerkinElmer UltraVIEW ERS Spinning Disk microscope (Software: UltraVIEW ERS Imaging Suite) equipped with a Plan-APOCHROMAT × 100/1.4 Oil DIC objective, a Confocal Scanner Unit (Yokogawa CSU 22), a Hamamatsu EM CCD camera (C9100-50) and a 488-nm Argon laser at 37 °C, and time-lapse sequences were performed for 60 s with a 400-ms interval. Automatic analysis of EB3-EGFP signal tracks was performed with ImageJ (http://imagej.nih.gov/ij/) and Matlab (Mathworks) as described.

The subject of the next experiment is HeLa cells. The experiment can be described thus: γ-Tubulin localization on centrosomes. Type of experiment: cell-based, human. The note with it: interphase and mitotic HeLa cells, 6 h. As for the experimental part:
Supplementary Figure 8. Impact of gatastatin on γ-tubulin localization in HeLa cells (a-d) γ-Tubulin localization on centrosome in gatastatin treated HeLa cells. (a) Gatatstatin-treated interphase cells (for 6 h) were analyzed. Red, green and blue in the merged image represent pericentrin, γ-tubulin and DNA, respectively. Scale bar, 5 µm. (b) The γ-tubulin signal around pericentrin in (a) was calculated using ImageJ software from 250 (control) and 166 (gatastatin) centrosomes. Error bars represent S.D. Two-tailed, un-paired Student’s t-test was used to obtain P values. (c) Gatatstatin-treated mitotic cells (for 6 h) were analyzed. Red, green and blue in the merged image represent pericentrin, γ-tubulin and DNA, respectively.
Scale bar, 5 µm. (d) The γ-tubulin signal on pericentrin in (c) was calculated using ImageJ software from 59 (control) and 98 (gatastatin) centrosomes. Error bars represent S.D. Two-tailed, un-paired Student’s t-test was used to obtain P values. γ-Tubulin and pericentrin antibodies were purchased from Sigma (GTU-88, Cat# T6557) and Abcam (Cat# ab4448), respectively.
(1 picture or pasted object on this page, not shown here)

`COc1cc2c(=O)c(-c3cc(OC)c4c(c3OC)OCO4)coc2cc1OCc1ccccc1` [Gatastatin, O^7-demethylbenzyl AG1] had an IC50 in experiment [1] above 100 µM. In experiment [2] (3 μM), the Track length came to 1.03±0.16 μm, the Track lifetime turned out to be 3.45 ± 0.71 s, the Velocity stood at 12.49±1.67 μm min^−1 and the Track numbers stood at 94±27. In experiment [2] (10 μM), this compound registered a Track length of 0.84±0.10 μm, a Track lifetime of 3.67 ± 0.62 s, a Velocity of 10.03±0.99 μm min^−1 and a Track numbers of 83±30. Besides, in experiment [2] (30 μM), the Track length was found to be 0.71±0.08 μm, the Track lifetime was determined as 3.84 ± 0.50 s, the Velocity was 8.43±0.81 μm min^−1 and the Track numbers is 89±32. The “γ-Tubulin localization to centrosomes” value with HeLa cells is “not affected”.
